The source of these data is US20260216141A1, “NECROSIS INHIBITOR” (LINKGEVITY LIMITED, priority 2023, published 2026).

In one data set the test system is Hepg2s spheroids. It is filed as cell-based. The settings on record: for necrotic core formation / cell death necrosis relative to control: hypoxic and nutrient deprivation stress, DRAQ7, up to day 7. The procedure: Media changes were on alternative days. […] DMSO controls were added on each plate.
In some of the following Examples, human 3D cell culture was employed using liver Hepg2 cells. 3D cell culture is known to accurately replicate a cell's native environment. During embryonic development, cells aggregate and self-assemble into complex multi-cellular structures. The same aggregation process can likewise occur in in vitro culture systems if cell-cell cohesion is favoured over cell attachment to a substrate. The resulting 3D cell culture aggregates are known as spheroids. […] A standard method of spheroid formation in U-bottom low adhesion plates was used in the Examples herein.
This is because, as the spheroids grow, only the peripheral cells obtain oxygen and nutrients from the cell culture medium. The inner cells die from cell death necrosis, with the formation of large necrotic cores (observable though use of standard live dead stains). Thus, necrotic core formation represents a naturally occurring hypoxic and nutrient stress. This resembles multiple forms of shock in humans where blood flow carrying nutrients and oxygen is disrupted to certain cells, tissues and/or organs.

For data set [1] the following is noted: known in the art; cited from earlier work.
Data set [2] relates to human intestinal fibroblast primary cell spheroids. As to the kind of experiment: Human intestinal fibroblast primary cell spheroids, hydrogen peroxide oxidative stress, Calcein AM/Ethidium homodimer-1 stain. It is filed as cell-based. The note with it: hydrogen peroxide 800 μM for 6 hrs; preventative; Dantrolene 100 μM, retinoic acid 10, 20 or 40 μM, Nifedipine 10 μM. The procedure: Media changes were on alternative days. […] Drug treatment was done overnight prior stress. […] Two repeats of all conditions were performed. Each repeat used 31 organoids per condition. […] DMSO controls were assessed in parallel on each plate.
Thus far, the Examples have focused on hypoxic and nutrient deprivation stressors. To test other stressors, this Example uses an oxidative stress/toxin stress model, where human intestinal fibroblast (HIF) primary cell spheroids were exposed to hydrogen peroxide. The standard viability Calcein AM/Ethidium homodimer-1 staining was used as a marker of cell death. Following 800 μM hydrogen peroxide exposure for 6 hrs, just over 25% of cells were dead in the control (i.e. relative to Triton X-100 that kills all cells).

“Also recorded” adds a separate entry of the source. Like-named read-outs stand apart in the source and are kept apart here.

Turning to `COc1ccc([C@@H]2N[C@H](C(=O)O)Cc3c2[nH]c2ccccc32)cc1CN1CCN(c2ccccc2F)CC1` (relative stereo) [cis-Ned 19], the “necrotic core formation / cell death necrosis relative to control” value with Hepg2s spheroids (Hepg2s spheroids) is reported as “no significant difference from the control; also recorded: no significant effect on level of cell death necrosis”.

As to `COc1ccc([C@H]2N[C@H](C(=O)O)Cc3c2[nH]c2ccccc32)cc1CN1CCN(c2ccccc2F)CC1` (relative stereo) [trans-Ned 19], the “necrotic core formation / cell death necrosis relative to control” value in the data set with Hepg2s spheroids (Hepg2s spheroids) is given as “no significant difference from the control; also recorded: no significant effect on level of cell death necrosis”. As for `CC(=O)OCOC(=O)CN(CC(=O)OCOC(C)=O)c1ccccc1OCCOc1ccccc1N(CC(=O)OCOC(C)=O)CC(=O)OCOC(C)=O` [BAPTA-AM, 2-[N-[2-(acetyloxymethoxy)-2-oxoethyl]-2-[2-[2-[bis [2-(acetyloxymethoxy)-2-oxoethyl]amino]phenoxy]ethoxy]anilino]acetic acid acetyloxymethyl ester], in the data set with Hepg2s spheroids (time points earlier than day 7), the “toxicity at earlier time points” value is “some milder toxicity in some trials”. For the same compound, in the data set on Hepg2s spheroids (x8 dosage, 25 μM, day 7), the necrosis suppression result was “significant necrosis suppression”. Moreover, the “cell culture dosages considered maximum dosages which result in minimum toxicity” value in data set [1] is 1 to 3 µM.

`O=C(O)CN(CCN(CC(=O)O)CC(=O)O)CCN(CC(=O)O)CC(=O)O` [DTPA, diethylenetriaminepentaacetic acid]: the “toxicity at earlier time points” value in the data set with Hepg2s spheroids is listed as “some mild, but not statistically significant, toxicity”. Further, the “dosage needed to suppress necrosis” value with Hepg2s spheroids (Hepg2s spheroids, day 7) was determined as 4000 µM. For the same compound, the “cell culture dosages considered maximum dosages which result in minimum toxicity” value in data set [1] is listed as “around 50 μM”. Consider `O=C1CN(/N=C/c2ccc(-c3ccc([N+](=O)[O-])cc3)o2)C(O)=N1` [Dantrolene], for which the “necrotic core formation / cell death necrosis relative to control” value with Hepg2s spheroids (Hepg2s spheroids) is reported as “no significant difference from the control; also recorded: no significant effect on necrosis inhibition; also recorded: no significant effect on cell necrosis relative to control”; in the data set with Hepg2s spheroids (Hepg2s spheroids, listed as dantrolene), “no significant difference to control”. The “necrosis following oxidative stress relative to control” value in data set [2] is reported as “either no significant difference or a worse effect to control”. With `CCCCC/C=C\C/C=C\C/C=C\C/C=C\CCCC(=O)O` [arachidonic acid], the “necrotic core formation / cell death necrosis relative to control” value with Hepg2s spheroids (Hepg2s spheroids) is reported as “No significant necrosis prevention and/or treatment”. `CC1(C)[C@@H](OC(=O)CCC(=O)O)CC[C@]2(C)[C@H]3C(=O)C=C4[C@@H]5C[C@@](C)(C(=O)O)CC[C@]5(C)CC[C@@]4(C)[C@]3(C)CC[C@@H]12` [carbenoxolone]: in the data set on Hepg2s spheroids (Hepg2s spheroids), the “necrotic core formation / cell death necrosis relative to control” value is listed as “No significant necrosis prevention and/or treatment”. For the compound `O=C(O)c1ccccc1Nc1cccc(C(F)(F)F)c1` [flufenamic acid], in the data set with Hepg2s spheroids (Hepg2s spheroids), the “necrotic core formation / cell death necrosis relative to control” value is “No significant necrosis prevention and/or treatment”.

In the case of `CC1(C)[C@@H](O)CC[C@]2(C)[C@H]3C(=O)C=C4[C@@H]5C[C@@](C)(C(=O)O)CC[C@]5(C)CC[C@@]4(C)[C@]3(C)CC[C@@H]12` [glycyrrhetinic acid], the “necrotic core formation / cell death necrosis relative to control” value in the data set with Hepg2s spheroids (Hepg2s spheroids) was “No significant necrosis prevention and/or treatment”. `FC(F)(F)C(Cl)Br` (stereo not shown) [halothane]: in the data set with Hepg2s spheroids (Hepg2s spheroids), the “necrotic core formation / cell death necrosis relative to control” value is “No significant necrosis prevention and/or treatment”.

Regarding `CCCCCCCO` [heptanol], in the data set with Hepg2s spheroids (Hepg2s spheroids), the “necrotic core formation / cell death necrosis relative to control” value is given as “No significant necrosis prevention and/or treatment”. As for `CCCCC/C=C\C/C=C\CCCCCCCC(=O)O` [linoleic acid], in the data set with Hepg2s spheroids, the “level of cell death / toxicity in isolation relative to control” value is “greater toxicity relative to control”. In addition, the “necrotic core formation / cell death necrosis relative to control” value in the data set with Hepg2s spheroids (Hepg2s spheroids) is given as “No significant necrosis prevention and/or treatment”. As to `Cc1ccc(Cl)c(Nc2ccccc2C(=O)O)c1Cl` [meclofenamic acid], in the data set with Hepg2s spheroids (Hepg2s spheroids), the “necrotic core formation / cell death necrosis relative to control” value is given as “No significant necrosis prevention and/or treatment”. As for `OC(c1cc(C(F)(F)F)nc2c(C(F)(F)F)cccc12)C1CCCCN1` (stereo not shown) [mefloquine], the “necrotic core formation / cell death necrosis relative to control” value with Hepg2s spheroids (Hepg2s spheroids) is on record as “No significant necrosis prevention and/or treatment”.

Consider `O=C(O)c1cccnc1Nc1cccc(C(F)(F)F)c1` [niflumic acid], for which the “necrotic core formation / cell death necrosis relative to control” value in the data set on Hepg2s spheroids (Hepg2s spheroids) is “No significant necrosis prevention and/or treatment”.

On to `CCCCCCCCO` [octanol], for which the “necrotic core formation / cell death necrosis relative to control” value in the data set with Hepg2s spheroids (Hepg2s spheroids) is “No significant necrosis prevention and/or treatment”. In addition, the “level of cell death / toxicity in isolation relative to control” value in the data set on Hepg2s spheroids (compound in isolation, most trials) is “greater toxicity relative to control”.

Regarding `CCCCCCCC/C=C\CCCCCCCC(N)=O` [oleamide], in the data set on Hepg2s spheroids (Hepg2s spheroids), the “necrotic core formation / cell death necrosis relative to control” value was “No significant necrosis prevention and/or treatment”. For the compound `CCCCCCCC/C=C\CCCCCCCC(=O)O` [oleic acid], the “necrotic core formation / cell death necrosis relative to control” value with Hepg2s spheroids (Hepg2s spheroids) was “no significant difference from the control; also recorded: No significant necrosis prevention and/or treatment; also recorded: no significant effect on cell necrosis relative to control”. For `CCN(CC)CCOC(=O)c1ccc(N)cc1` [procaine], in the data set on Hepg2s spheroids (Hepg2s spheroids), the “necrotic core formation / cell death necrosis relative to control” value was “no significant difference from the controls; also recorded: no significant effect on level of cell death necrosis”. In the case of `C=C[C@H]1C[N@@]2CC[C@H]1C[C@@H]2[C@@H](O)c1ccnc2ccc(OC)cc12` [quinidine], the “necrotic core formation / cell death necrosis relative to control” value in the data set on Hepg2s spheroids (Hepg2s spheroids) was “No significant necrosis prevention and/or treatment”. Turning to `C=C[C@H]1C[N@@]2CC[C@H]1C[C@H]2[C@H](O)c1ccnc2ccc(OC)cc12` [quinine], in the data set on Hepg2s spheroids (Hepg2s spheroids), the “necrotic core formation / cell death necrosis relative to control” value is reported as “No significant necrosis prevention and/or treatment”. Take `N.N.N.N.N.N.N.N.N.N.N.N.N.N.[Cl-].[Cl-].[Cl-].[Cl-].[Cl-].[Cl-].[O-2].[O-2].[Ru+3].[Ru+3].[Ru+4]` [ruthenium red]: the “necrotic core formation / cell death necrosis relative to control” value with Hepg2s spheroids (Hepg2s spheroids) is “no significant difference from the controls; also recorded: no significant effect on level of cell death necrosis”. With ryanodine, the “necrotic core formation / cell death necrosis relative to control” value in the data set on Hepg2s spheroids (Hepg2s spheroids) is on record as “no significant difference from the control; also recorded: no significant difference to control”.
